For assay [1], the target named is c-Cbl (Homo sapiens (Human), UniProt P22681). The experiment in a line: C-Cbl LCK Ub TR-FRET assay (c-cbl Lck HTRF). The settings on record: for (fold-selectivity): C-cbl Lck HTRF IC50 relative to Cbl-b Lck HTRF IC50. The assay is classed as biochemical. The gist of the method:
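After the ubiquitination reaction, detection mixture was added and plates incubated 20 min at room temperature before reading. IC50 values were calculated with wells lacking LCK as the low control and DMSO as the high control.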
In general terms: TR-FRET usually uses a lanthanide donor and a delayed reading to cut background.

The target of assay [2] is Cbl-b (Homo sapiens (Human), UniProt Q13191). The experiment in a line: Cbl-b LCK Ub TR-FRET assay (Cbl-b Lck HTRF). The assay is classed as biochemical. In outline: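 Biotin-Cbl-b preincubated with compound (10-point 3-fold series) 60 min, then His-LCK with 1 mM ATP (2× mixture) added for 90 min at room temperature. Ubiquitination detected by TR-FRET using HA-ubiquitin/UBE2D2 adduct, anti-HA-D2 and streptavidin-Eu; IC50 normalised to no-LCK and DMSO controls.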
Chain of Cbl-b (Q13191 40-426): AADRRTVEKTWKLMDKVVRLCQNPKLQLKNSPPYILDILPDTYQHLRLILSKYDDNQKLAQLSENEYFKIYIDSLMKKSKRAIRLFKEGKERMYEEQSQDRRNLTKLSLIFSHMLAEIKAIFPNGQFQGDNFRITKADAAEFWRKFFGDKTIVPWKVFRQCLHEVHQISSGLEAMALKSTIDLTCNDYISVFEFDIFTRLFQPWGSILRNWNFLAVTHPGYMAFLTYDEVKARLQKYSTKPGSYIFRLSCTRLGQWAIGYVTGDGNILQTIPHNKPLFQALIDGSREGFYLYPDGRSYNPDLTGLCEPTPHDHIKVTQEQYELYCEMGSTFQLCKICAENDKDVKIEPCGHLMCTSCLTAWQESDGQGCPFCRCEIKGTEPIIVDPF

Counter-ions that a name gives are not always drawn.

Chain of c-Cbl (P22681 47-435): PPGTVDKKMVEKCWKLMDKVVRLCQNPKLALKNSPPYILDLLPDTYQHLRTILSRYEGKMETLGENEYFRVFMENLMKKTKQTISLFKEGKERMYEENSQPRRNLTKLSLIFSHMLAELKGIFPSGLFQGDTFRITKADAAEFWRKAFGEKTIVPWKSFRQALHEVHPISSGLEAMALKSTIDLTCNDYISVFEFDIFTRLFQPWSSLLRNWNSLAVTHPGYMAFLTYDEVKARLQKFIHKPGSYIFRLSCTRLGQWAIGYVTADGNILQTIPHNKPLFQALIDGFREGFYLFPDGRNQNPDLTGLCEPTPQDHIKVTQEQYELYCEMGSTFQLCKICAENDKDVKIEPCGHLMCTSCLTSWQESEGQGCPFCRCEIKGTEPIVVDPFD

As usually defined, the IC50 is the concentration needed to halve the response being measured. Read a low IC50 as higher potency. For `Cn1cnnc1CC1(c2cc(NCC3CC3)nc(N3Cc4c(cc(CNC5(C)CCC5)cc4C(F)(F)F)C3=O)c2)CCC1` [Compound 238, 2-(6-((cyclopropylmethyl)amino)-4-(1-((4-methyl-4H-1,2,4-triazol-3-yl)methyl)cyclobutyl)pyridin-2-yl)-6-(((1-methylcyclobutyl)amino)methyl)-4-(trifluoromethyl)-isoindolin-1-one], in assay [1], the IC50 was 11 nM and the “(fold-selectivity)” value was “(1.0x)”. For the same molecule, the half-maximal inhibitory concentration (IC50) in assay [2] turned out to be 11 nM.

For the molecule `Cn1cnnc1[C@H](F)C1(c2cccc(N3Cc4c(cc(CNC5CCC5)cc4C(F)(F)F)C3=O)c2)COC1` [Compound 227, (R)-6-((Cyclobutylamino)methyl)-2-(3-(3-(fluoro(4-methyl-4H-1,2,4-triazol-3-yl)methyl)oxetan-3-yl)phenyl)-4-(trifluoromethyl)isoindolin-1-one formate], the IC50 is 13 nM in assay [1] and 16 nM in assay [2].

Consider `CCC1(O)CN(Cc2cc3c(c(C(F)(F)F)c2)CN(c2cccc(C4([C@@H](F)c5nncn5C)COC4)c2)C3=O)C1` [Compound 167, (R)-6-((3-ethyl-3-hydroxyazetidin-1-yl)methyl)-2-(3-(3-(fluoro(4-methyl-4H-1,2,4-triazol-3-yl)methyl)oxetan-3-yl)phenyl)-4-(trifluoromethyl)isoindolin-1-one], for which the results for the IC50 in assay [1] and in assay [2] were 150 nM and 59 nM, respectively. Moreover, in assay [1], the “(fold-selectivity)” value is 2.5x.

Regarding `Cn1cnnc1[C@H](F)C1(c2cccc(N3Cc4c(cc(CN5CCC[C@@H]5CO)cc4C(F)(F)F)C3=O)c2)COC1` [Compound 147, 2-(3-(3-((R)-fluoro(4-methyl-4H-1,2,4-triazol-3-yl)methyl)oxetan-3-yl)phenyl)-6-(((R)-2-(hydroxymethyl)pyrrolidin-1-yl)methyl)-4-(trifluoromethyl)isoindolin-1-one], the concentration for half-maximal inhibition (IC50) in assay [1] was 190 nM; in assay [2], 150 nM. For the same molecule, the “(fold-selectivity)” value in assay [1] is given as 1.3x.

For `Cn1cnnc1CC1(c2cc(N[C@H]3CC[C@@H](N)CC3)nc(N3Cc4c(cc(CNC5(C)CCC5)cc4C(F)(F)F)C3=O)c2)CCC1` [Compound 306, 2-(6-(((1s,4s)-4-aminocyclohexyl)amino)-4-(1-((4-methyl-4H-1,2,4-triazol-3-yl)methyl)cyclobutyl)pyridin-2-yl)-6-(((1-methylcyclobutyl)amino)methyl)-4-(trifluoromethyl)isoindolin-1-one], in assay [1], the half-maximal inhibitory concentration (IC50) was determined as 89 nM and the “(fold-selectivity)” value is given as “(1.2x)”. This molecule also came in with an IC50 in assay [2] of 76 nM.

On to `CC(C)[C@H]1CN(S(C)(=O)=O)CCN1Cc1cc2c(c(C(F)(F)F)c1)CN(c1cccc(C3([C@@H](F)c4nncn4C)COC3)c1)C2=O` [Compound 195, 2-(3-(3-((R)-fluoro(4-methyl-4H-1,2,4-triazol-3-yl)methyl)oxetan-3-yl)phenyl)-6-(((S)-2-isopropyl-4-(methylsulfonyl)piperazin-1-yl)methyl)-4-(trifluoromethyl)isoindolin-1-one], for which, in assay [1], the IC50 was found to be 110 nM and the “(fold-selectivity)” value is on record as 2.0x. The molecule also showed a half-maximal inhibitory concentration (IC50) in assay [2] of 53 nM.

On to `Cn1cnnc1[C@@H](F)C1(c2cccc(N3Cc4c(cc(CN5CCCC5)cc4C(F)(F)F)C3=O)c2)CC(F)(F)C1` [Compound 396, (S)-2-(3-(3,3-difluoro-1-(fluoro(4-methyl-4H-1,2,4-triazol-3-yl)methyl)cyclobutyl)phenyl)-6-(pyrrolidin-1-ylmethyl)-4-(trifluoromethyl)isoindolin-1-one], for which the IC50 in assay [1] was found to be 150 nM; in assay [2], 120 nM. Further, the “(fold-selectivity)” value in assay [1] is listed as “(1.3x)”.

As for `Cn1cnnc1[C@@H](F)C1(c2cccc(N3Cc4c(cc(CN5CC(O)(C6CC6)C5)cc4C(F)(F)F)C3=O)c2)COC1` [Compound 174, (S)-6-((3-cyclopropyl-3-hydroxyazetidin-1-yl)methyl)-2-(3-(3-(fluoro(4-methyl-4H-1,2,4-triazol-3-yl)methyl)oxetan-3-yl)phenyl)-4-(trifluoromethyl)isoindolin-1-one], the results for the IC50 in assay [1] and in assay [2] were 440 nM and 190 nM, respectively. In addition, the “(fold-selectivity)” value in assay [1] turned out to be 2.3x.

As to `CCCC1(O)CN(Cc2cc3c(c(C(F)(F)F)c2)CN(c2cccc(C4([C@@H](F)c5nncn5C)COC4)c2)C3=O)C1` [Compound 171, (R)-2-(3-(3-(fluoro(4-methyl-4H-1,2,4-triazol-3-yl)methyl)oxetan-3-yl)phenyl)-6-((3-hydroxy-3-propylazetidin-1-yl)methyl)-4-(trifluoromethyl)isoindolin-1-one], in assay [1], 82 nM corresponded to half-maximal inhibition (IC50) and the “(fold-selectivity)” value is reported as 1.7x. The molecule also registered an IC50 in assay [2] of 49 nM.

For the molecule `Cn1cnnc1[C@@H](F)C1(c2cccc(N3Cc4c(cc(CN5CC[C@@H](F)C5)cc4C(F)(F)F)C3=O)c2)COC1` [Compound 81, 2-(3-(3-((S)-fluoro(4-methyl-4H-1,2,4-triazol-3-yl)methyl)oxetan-3-yl)phenyl)-6-(((R)-3-fluoropyrrolidin-1-yl)methyl)-4-(trifluoromethyl)isoindolin-1-one], in assay [1], the midpoint of inhibition, the IC50, lay at 750 nM and the “(fold-selectivity)” value amounted to 2.8x. This molecule registered a half-inhibitory concentration (IC50) in assay [2] of 270 nM.

With `Cc1cnnn1CC1(c2cccc(N3Cc4c(cc(CN5CCN(C)C[C@@H]5C(C)C)cc4C(F)(F)F)C3=O)c2)COC1` [Compound 258, (S)-6-((2-isopropyl-4-methylpiperazin-1-yl)methyl)-2-(3-(3-((5-methyl-1H-1,2,3-triazol-1-yl)methyl)oxetan-3-yl)phenyl)-4-(trifluoromethyl)isoindolin-1-one], in assay [1], the half-maximal inhibitory concentration (IC50) turned out to be 31 nM and the “(fold-selectivity)” value is “(1.4x)”. In assay [2], the IC50 was 22 nM.

Turning to `Cn1cnnc1CC1(c2cc(NC3CCCC3)cc(N3Cc4c(cc(CNC5(C)CCC5)cc4C(F)(F)F)C3=O)c2)COC1` [Compound 480, 2-(3-(cyclopentylamino)-5-(3-((4-methyl-4H-1,2,4-triazol-3-yl)methyl)oxetan-3-yl)phenyl)-6-(((1-methylcyclobutyl)amino)methyl)-4-(trifluoromethyl)isoindolin-1-one], in assay [1], the IC50 came to 180 nM and the “(fold-selectivity)” value is given as “(2.8x)”. The same molecule had an IC50 in assay [2] of 59 nM.

Regarding `CC[C@H](C)NCc1cc2c(c(C(F)(F)F)c1)CN(c1cccc(C3(Cc4nncn4C)CC(F)(F)C3)c1)C2=O` [Compound 371, (S)-6-((sec-butylamino)methyl)-2-(3-(3,3-difluoro-1-((4-methyl-4H-1,2,4-triazol-3-yl)methyl)cyclobutyl)phenyl)-4-(trifluoromethyl)isoindolin-1-one], in assay [1], the IC50 is 14 nM and the “(fold-selectivity)” value was “(0.94x)”. In assay [2], this molecule yielded an IC50 of 15 nM.

In the case of `Cc1cn(CC2(c3cccc(N4Cc5c(cc(CN6CCN(C)C[C@@H]6C(C)C)cc5C(F)(F)F)C4=O)c3)COC2)nn1` [Compound 257, (S)-6-((2-isopropyl-4-methylpiperazin-1-yl)methyl)-2-(3-(3-((4-methyl-1H-1,2,3-triazol-1-yl)methyl)oxetan-3-yl)phenyl)-4-(trifluoromethyl)isoindolin-1-one], in assay [1], the IC50 worked out at 20000 nM and the “(fold-selectivity)” value is given as “(1.6x)”. Moreover, in assay [2], the IC50 worked out at 13000 nM.

For `Cn1cnnc1CC1(c2cc(CC3CCCC3)nc(N3Cc4c(cccc4C(F)(F)F)C3=O)c2)COC1` [Compound 292, 2-(6-(cyclopentylmethyl)-4-(3-((4-methyl-4H-1,2,4-triazol-3-yl)methyl)oxetan-3-yl)pyridin-2-yl)-4-(trifluoromethyl)isoindolin-1-one], in assay [1], the IC50 came out at 5100 nM and the “(fold-selectivity)” value is “(1.5x)”. The 50% inhibitory concentration (IC50) in assay [2] was found to be 3400 nM.

Regarding `Cn1cnnc1CC1(c2cccc(N3Cc4c(cc(CN5CCC[C@@](C)(O)C5)cc4C(F)(F)F)C3=O)c2)CC(F)(F)C1` [Compound 441, (R)-2-(3-(3,3-difluoro-1-((4-methyl-4H-1,2,4-triazol-3-yl)methyl)cyclobutyl)phenyl)-6-((3-hydroxy-3-methylpiperidin-1-yl)methyl)-4-(trifluoromethyl)isoindolin-1-one], in assay [1], half-maximal inhibition (IC50) was put at 23 nM and the “(fold-selectivity)” value is recorded as “(0.56x)”. For the same molecule, in assay [2], the midpoint of inhibition, the IC50, lay at 42 nM.

On to `Cn1cnnc1CC1(c2cc(NCCC#N)nc(N3Cc4c(cc(CNC5(C)CCC5)cc4C(F)(F)F)C3=O)c2)CCC1` [Compound 308, 3-((4-(1-((4-methyl-4H-1,2,4-triazol-3-yl)methyl)cyclobutyl)-6-(6-(((1-methylcyclobutyl)amino)methyl)-1-oxo-4-(trifluoromethyl)isoindolin-2-yl)pyridin-2-yl)amino)propanenitrile], for which the half-inhibitory concentration (IC50) is 7.5 nM in assay [1] and 12 nM in assay [2]. In addition, in assay [1], the “(fold-selectivity)” value is “(0.63x)”.

With `CC(C)[C@H]1CNCCN1Cc1cc2c(c(C(F)(F)F)c1)CN(c1cccc(C3(Cc4nncn4C)CC(F)(F)C3)c1)C2=O` [Compound 219, (S)-2-(3-(3,3-difluoro-1-((4-methyl-4H-1,2,4-triazol-3-yl)methyl)cyclobutyl)phenyl)-6-((2-isopropylpiperazin-1-yl)methyl)-4-(trifluoromethyl)isoindolin-1-one], in assay [1], the IC50 amounted to 84 nM and the “(fold-selectivity)” value turned out to be 1.1x. The IC50 in assay [2] was 75 nM.

As to `CC(C)NCc1cc2c(c(C(F)(F)F)c1)CN(c1cccc(C3([C@H](F)c4nncn4C)CC(F)(F)C3)c1)C2=O` [Compound 418, (S)-2-(3-(3,3-difluoro-1-(fluoro(4-methyl-4H-1,2,4-triazol-3-yl)methyl)cyclobutyl)phenyl)-6-((isopropylamino)methyl)-4-(trifluoromethyl)isoindolin-1-one], the concentration for half-maximal inhibition (IC50) in assay [1] came out at 37 nM; in assay [2] it was 32 nM. In addition, the “(fold-selectivity)” value in assay [1] is given as “(1.2x)”.
